Columns and labels:
[1] = biological target: T1, Cytoplasmic tyrosine-protein kinase BMX (Homo sapiens) (UniProt P51813); assay: BMX SGC Tm panel (DSF); conditions: for ΔTm: Compound concentration 10.0 uM
T1 sequence (whole entry): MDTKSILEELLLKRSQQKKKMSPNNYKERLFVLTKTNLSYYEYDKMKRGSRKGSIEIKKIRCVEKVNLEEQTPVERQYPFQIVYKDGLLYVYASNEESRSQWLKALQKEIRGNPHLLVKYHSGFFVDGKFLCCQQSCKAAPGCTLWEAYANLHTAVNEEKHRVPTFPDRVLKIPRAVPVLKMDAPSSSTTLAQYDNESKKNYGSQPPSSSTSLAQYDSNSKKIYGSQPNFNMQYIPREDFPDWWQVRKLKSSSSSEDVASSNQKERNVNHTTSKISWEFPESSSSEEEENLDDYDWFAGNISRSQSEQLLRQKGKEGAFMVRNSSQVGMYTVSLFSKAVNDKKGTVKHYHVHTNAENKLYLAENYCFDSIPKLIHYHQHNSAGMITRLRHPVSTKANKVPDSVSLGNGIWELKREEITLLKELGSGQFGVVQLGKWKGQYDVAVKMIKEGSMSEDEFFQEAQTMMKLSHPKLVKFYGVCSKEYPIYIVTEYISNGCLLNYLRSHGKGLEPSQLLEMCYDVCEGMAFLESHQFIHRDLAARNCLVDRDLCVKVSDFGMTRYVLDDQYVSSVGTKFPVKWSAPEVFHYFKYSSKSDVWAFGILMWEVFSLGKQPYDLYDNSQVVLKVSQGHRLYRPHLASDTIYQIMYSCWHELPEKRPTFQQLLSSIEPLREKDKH

[2] = biological target: STE20-like serine/threonine-protein kinase (Homo sapiens) (UniProt Q9H2G2); assay: SLK SGC Tm panel (DSF); conditions: for ΔTm: Compound concentration 10.0 uM
STE20-like serine/threonine-protein kinase (Homo sapiens), sequence (Q9H2G2 whole entry, looked up): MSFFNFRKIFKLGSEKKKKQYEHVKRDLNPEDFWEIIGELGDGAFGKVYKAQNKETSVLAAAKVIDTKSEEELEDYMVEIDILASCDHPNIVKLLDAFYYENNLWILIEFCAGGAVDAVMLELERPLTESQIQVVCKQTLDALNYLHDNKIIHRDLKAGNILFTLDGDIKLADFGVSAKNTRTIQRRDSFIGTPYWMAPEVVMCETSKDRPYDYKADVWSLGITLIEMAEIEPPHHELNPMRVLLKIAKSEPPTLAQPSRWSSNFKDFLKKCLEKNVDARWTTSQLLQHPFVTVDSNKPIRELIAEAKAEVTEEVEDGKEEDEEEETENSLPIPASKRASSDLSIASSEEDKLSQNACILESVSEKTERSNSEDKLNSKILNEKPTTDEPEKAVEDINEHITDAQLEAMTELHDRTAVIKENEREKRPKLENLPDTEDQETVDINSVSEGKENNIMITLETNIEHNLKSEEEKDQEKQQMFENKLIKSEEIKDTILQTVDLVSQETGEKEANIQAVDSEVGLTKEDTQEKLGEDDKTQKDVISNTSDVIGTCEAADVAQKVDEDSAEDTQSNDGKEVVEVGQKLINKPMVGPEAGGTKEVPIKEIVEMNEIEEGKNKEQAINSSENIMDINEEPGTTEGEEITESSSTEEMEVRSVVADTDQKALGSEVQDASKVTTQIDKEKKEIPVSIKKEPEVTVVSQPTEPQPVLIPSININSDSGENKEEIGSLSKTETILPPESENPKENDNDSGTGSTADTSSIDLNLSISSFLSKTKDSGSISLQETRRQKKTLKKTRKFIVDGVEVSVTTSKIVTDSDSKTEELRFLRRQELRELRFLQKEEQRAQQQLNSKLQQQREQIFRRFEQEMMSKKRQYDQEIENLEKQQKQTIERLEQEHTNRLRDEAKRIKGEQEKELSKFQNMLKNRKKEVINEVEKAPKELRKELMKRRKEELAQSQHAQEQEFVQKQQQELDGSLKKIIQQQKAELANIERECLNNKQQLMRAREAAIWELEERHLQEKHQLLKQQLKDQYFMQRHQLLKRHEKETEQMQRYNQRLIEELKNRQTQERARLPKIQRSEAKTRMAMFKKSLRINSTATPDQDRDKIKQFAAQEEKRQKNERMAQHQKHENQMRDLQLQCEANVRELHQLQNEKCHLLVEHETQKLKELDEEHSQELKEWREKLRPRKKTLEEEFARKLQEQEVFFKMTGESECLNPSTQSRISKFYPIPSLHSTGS

[3] = biological target: 5-hydroxytryptamine receptor 1D (Homo sapiens) (UniProt P28221); conditions: Compound concentration 10.0 uM
5-hydroxytryptamine receptor 1D (Homo sapiens), sequence (P28221 whole entry): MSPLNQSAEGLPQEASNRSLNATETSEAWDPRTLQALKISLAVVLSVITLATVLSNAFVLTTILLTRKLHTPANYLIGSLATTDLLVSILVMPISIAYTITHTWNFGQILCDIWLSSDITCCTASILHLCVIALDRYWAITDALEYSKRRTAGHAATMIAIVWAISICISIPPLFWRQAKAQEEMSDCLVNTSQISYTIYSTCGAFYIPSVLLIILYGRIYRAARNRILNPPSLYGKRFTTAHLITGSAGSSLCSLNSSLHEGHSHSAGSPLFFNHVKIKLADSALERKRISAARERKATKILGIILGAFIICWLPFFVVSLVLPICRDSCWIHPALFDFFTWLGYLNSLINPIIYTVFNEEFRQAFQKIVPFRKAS

[4] = biological target: Alpha-1D adrenergic receptor (Homo sapiens) (UniProt P25100); conditions: Compound concentration 10.0 uM
Alpha-1D adrenergic receptor (Homo sapiens), sequence (P25100 whole entry): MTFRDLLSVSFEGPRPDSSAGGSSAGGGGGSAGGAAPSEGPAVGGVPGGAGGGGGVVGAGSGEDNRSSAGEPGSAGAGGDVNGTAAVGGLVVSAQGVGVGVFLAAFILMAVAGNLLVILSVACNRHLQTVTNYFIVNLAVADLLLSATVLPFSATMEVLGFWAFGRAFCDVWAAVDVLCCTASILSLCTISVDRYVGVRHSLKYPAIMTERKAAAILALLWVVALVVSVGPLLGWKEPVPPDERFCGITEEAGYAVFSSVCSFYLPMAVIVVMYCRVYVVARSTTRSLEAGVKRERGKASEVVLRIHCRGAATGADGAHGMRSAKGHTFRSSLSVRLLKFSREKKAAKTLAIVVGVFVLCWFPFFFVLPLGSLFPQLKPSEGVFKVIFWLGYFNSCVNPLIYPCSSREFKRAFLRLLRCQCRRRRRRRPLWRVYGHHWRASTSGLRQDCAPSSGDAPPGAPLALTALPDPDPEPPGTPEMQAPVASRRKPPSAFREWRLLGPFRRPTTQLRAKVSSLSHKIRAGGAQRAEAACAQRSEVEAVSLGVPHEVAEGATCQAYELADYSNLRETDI

[5] = biological target: T2, Calcium/calmodulin-dependent protein kinase type IV (Homo sapiens) (UniProt Q16566); assay: CAMK4 SGC Tm panel (DSF); conditions: for ΔTm: Compound concentration 10.0 uM
T2 sequence (whole entry): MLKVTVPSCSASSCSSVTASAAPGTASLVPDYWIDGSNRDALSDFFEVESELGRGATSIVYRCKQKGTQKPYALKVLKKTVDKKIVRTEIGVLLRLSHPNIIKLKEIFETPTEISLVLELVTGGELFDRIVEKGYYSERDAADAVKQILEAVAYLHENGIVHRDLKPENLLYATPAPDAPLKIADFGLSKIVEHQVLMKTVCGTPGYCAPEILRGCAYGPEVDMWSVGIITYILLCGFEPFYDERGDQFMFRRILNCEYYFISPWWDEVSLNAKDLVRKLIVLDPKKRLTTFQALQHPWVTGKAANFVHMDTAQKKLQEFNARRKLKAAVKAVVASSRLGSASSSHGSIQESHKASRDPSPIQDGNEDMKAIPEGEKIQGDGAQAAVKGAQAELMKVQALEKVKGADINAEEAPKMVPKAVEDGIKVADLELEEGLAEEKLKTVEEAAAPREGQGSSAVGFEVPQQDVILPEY

[6] = biological target: Histamine H1 receptor (Homo sapiens) (UniProt P35367); conditions: Compound concentration 10.0 uM
Histamine H1 receptor (Homo sapiens), sequence (P35367 whole entry): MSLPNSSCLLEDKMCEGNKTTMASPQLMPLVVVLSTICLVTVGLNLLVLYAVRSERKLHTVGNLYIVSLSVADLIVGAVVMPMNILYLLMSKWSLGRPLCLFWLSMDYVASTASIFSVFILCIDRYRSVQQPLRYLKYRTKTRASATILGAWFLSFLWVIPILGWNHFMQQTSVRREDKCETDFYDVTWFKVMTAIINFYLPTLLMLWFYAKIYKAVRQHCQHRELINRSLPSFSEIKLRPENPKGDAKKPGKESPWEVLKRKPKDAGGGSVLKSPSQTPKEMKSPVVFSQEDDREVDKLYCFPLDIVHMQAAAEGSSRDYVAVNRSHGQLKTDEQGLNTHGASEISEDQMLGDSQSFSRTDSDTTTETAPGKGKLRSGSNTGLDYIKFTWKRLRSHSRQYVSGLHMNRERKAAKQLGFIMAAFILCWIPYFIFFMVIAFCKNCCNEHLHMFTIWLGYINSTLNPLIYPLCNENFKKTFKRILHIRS

[7] = biological target: T3, MAP/microtubule affinity-regulating kinase 4 (Homo sapiens) (UniProt Q96L34); assay: MARK4 SGC Tm panel (DSF); conditions: for ΔTm: Compound concentration 10.0 uM
T3 sequence (whole entry): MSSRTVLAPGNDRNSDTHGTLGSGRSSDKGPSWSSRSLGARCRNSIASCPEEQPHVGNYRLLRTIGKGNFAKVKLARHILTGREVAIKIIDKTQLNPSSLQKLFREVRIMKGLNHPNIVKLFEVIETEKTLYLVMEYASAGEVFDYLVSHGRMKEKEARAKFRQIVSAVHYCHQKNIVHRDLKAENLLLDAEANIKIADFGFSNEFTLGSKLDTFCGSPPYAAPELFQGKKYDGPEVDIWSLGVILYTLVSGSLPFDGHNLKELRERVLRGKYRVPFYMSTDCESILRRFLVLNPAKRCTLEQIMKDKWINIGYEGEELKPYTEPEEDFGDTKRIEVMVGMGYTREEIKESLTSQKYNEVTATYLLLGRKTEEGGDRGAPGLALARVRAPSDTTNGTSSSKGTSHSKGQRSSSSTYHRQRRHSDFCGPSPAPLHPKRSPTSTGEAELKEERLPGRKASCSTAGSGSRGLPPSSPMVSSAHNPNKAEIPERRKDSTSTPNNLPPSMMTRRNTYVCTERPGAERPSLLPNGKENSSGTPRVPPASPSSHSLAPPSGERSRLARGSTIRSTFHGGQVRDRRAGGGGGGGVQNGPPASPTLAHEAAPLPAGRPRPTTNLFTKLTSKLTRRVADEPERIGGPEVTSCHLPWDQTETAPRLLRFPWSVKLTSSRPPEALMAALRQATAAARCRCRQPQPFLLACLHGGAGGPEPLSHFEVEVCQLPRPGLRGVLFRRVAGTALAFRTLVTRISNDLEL

[8] = biological target: Mu-type opioid receptor (Homo sapiens, UniProt P35372); conditions: Compound concentration 10.0 uM
Mu-type opioid receptor, sequence (P35372 whole entry): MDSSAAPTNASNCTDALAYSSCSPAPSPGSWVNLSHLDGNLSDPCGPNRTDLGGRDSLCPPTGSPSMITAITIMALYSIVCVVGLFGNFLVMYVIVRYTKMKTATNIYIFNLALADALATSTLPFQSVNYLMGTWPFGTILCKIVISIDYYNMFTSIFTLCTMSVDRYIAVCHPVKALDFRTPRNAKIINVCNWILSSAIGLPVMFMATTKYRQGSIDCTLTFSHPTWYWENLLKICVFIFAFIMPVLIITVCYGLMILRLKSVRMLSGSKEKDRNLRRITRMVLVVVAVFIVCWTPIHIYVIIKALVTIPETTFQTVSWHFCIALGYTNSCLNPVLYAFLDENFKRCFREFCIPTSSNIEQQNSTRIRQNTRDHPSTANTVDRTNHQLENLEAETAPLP

[9] = biological target: T4, Mitogen-activated protein kinase 13 (Homo sapiens) (UniProt O15264); assay: MAPK13 SGC Tm panel (DSF); conditions: for ΔTm: Compound concentration 10.0 uM
T4 sequence (whole entry): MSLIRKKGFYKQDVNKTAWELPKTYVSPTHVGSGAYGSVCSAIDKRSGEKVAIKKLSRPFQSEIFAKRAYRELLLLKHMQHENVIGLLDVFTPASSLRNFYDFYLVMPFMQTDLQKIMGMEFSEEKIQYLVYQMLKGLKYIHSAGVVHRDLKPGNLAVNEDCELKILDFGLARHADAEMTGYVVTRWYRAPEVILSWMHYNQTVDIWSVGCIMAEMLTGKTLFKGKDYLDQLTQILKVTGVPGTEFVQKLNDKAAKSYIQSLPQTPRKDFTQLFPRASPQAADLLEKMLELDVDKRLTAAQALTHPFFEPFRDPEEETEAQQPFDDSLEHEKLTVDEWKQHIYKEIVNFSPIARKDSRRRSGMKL

[10] = biological target: 5-hydroxytryptamine receptor 5A (Homo sapiens) (UniProt P47898); conditions: Compound concentration 10.0 uM
5-hydroxytryptamine receptor 5A (Homo sapiens), sequence (P47898 whole entry): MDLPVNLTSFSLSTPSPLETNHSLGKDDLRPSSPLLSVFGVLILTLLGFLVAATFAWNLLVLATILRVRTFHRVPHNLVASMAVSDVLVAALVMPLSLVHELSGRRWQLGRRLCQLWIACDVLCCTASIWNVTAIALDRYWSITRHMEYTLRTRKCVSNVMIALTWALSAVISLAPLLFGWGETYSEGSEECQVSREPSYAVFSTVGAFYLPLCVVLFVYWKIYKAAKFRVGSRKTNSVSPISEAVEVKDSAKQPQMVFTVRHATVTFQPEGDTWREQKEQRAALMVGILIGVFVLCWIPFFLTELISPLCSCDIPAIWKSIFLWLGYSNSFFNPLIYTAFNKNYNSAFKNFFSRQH

[11] = biological target: Cyclin-dependent kinase 16 (Homo sapiens) (UniProt Q00536); assay: PCTK1 SGC Tm panel (DSF); conditions: for ΔTm: Compound concentration 10.0 uM
Cyclin-dependent kinase 16 (Homo sapiens), sequence (Q00536 whole entry): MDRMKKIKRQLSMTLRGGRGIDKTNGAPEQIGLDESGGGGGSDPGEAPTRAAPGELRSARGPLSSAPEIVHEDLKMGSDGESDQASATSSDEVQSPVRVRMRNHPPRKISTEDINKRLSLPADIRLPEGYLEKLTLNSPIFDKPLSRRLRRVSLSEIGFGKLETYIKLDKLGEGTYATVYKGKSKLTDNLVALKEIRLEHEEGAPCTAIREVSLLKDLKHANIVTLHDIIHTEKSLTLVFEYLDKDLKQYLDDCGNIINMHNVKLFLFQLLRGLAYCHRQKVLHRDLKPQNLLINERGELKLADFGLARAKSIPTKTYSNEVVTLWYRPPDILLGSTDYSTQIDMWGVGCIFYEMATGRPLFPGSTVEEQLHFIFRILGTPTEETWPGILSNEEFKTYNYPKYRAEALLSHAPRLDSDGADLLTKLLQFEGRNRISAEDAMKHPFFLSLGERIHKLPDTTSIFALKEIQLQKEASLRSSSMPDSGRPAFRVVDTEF

[12] = biological target: Death-associated protein kinase 3 (Homo sapiens) (UniProt O43293); assay: DAPK3 SGC Tm panel (DSF); conditions: for ΔTm: Compound concentration 10.0 uM
Death-associated protein kinase 3 (Homo sapiens), sequence (O43293 whole entry, looked up): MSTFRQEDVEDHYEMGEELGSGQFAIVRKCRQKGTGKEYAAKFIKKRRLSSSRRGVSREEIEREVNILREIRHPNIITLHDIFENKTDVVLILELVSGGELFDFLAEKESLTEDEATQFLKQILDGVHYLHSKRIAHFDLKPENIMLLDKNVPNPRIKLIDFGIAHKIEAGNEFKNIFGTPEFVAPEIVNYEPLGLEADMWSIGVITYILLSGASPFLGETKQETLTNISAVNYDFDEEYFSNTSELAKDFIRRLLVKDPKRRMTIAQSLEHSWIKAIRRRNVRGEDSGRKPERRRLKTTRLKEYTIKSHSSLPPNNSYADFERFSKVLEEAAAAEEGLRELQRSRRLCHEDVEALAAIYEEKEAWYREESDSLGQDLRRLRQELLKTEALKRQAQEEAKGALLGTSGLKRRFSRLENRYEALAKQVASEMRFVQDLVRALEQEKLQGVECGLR

Row | Compound | delta Tm Staurosporine positive control [1] | ΔTm [1] | delta Tm Staurosporine positive control [2] | ΔTm [2] | inhibition [3] [%] | inhibition [4] [%] | delta Tm Staurosporine positive control [5] | ΔTm [5] | inhibition [6] [%] | delta Tm Staurosporine positive control [7] | ΔTm [7] | inhibition [8] [%] | delta Tm Staurosporine positive control [9] | ΔTm [9] | inhibition [10] [%] | delta Tm Staurosporine positive control [11] | ΔTm [11] | delta Tm Staurosporine positive control [12] | ΔTm [12]
1 | CCC[C@H]1CNCc2c1[nH]c(=O)c(C#N)c2N1CCC2(CC1)CC2 | 7.31 | -0.224 | 15.4 | -0.579 | 25 | 0.14 | 8.45 | -0.566 | -2.94 | 15.9 | -0.175 | 26.2 | 8.03 | 0.098 | 5.53 | 11.2 | -0.418 | 16.6 | 0.222
2 | CCC[C@@H]1CNCc2c1[nH]c(=O)c(C#N)c2N1CCC2(CC1)CC2 | 7.31 | -0.292 | 15.4 | -1.06 | 35 | -2.05 | 8.45 | -1.12 | 4.72 | 15.9 | 0.243 | 57.9 | 8.03 | 0.124 | 3.9 | 11.2 | -0.4 | 16.6 | 0.29
